In ChEMBL document CHEMBL1201862, “PubChem BioAssay data set” (2004):
Calls of active or inactive are those of the source.

Tests used:
[1] = biological target: T1, Intestinal-type alkaline phosphatase (Homo sapiens, UniProt P09923); assay: human IAP activators, dose response, biochemical, luminescent, uHTS hits, set 2 (AID 488817); assay type: functional;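 further: potency of activators that raise enzyme activity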
[2] = biological target: T2, Alkaline phosphatase, tissue-nonspecific isozyme (Homo sapiens, UniProt P05186)
T2 sequence (P05186 whole entry): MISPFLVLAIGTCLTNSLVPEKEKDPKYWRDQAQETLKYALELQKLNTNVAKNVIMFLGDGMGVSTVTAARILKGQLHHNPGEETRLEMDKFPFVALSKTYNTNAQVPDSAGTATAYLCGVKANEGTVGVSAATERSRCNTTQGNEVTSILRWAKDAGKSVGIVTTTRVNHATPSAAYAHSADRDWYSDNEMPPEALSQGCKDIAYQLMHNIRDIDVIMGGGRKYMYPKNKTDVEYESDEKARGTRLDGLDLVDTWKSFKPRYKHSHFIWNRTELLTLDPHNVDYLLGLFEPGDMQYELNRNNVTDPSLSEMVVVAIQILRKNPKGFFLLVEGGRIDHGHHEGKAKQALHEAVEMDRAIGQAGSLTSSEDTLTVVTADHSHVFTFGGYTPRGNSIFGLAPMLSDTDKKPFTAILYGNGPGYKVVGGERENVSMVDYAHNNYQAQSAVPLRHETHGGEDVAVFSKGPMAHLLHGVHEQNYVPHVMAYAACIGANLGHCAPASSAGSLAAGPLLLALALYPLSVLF

[3] = biological target: T2, Alkaline phosphatase, tissue-nonspecific isozyme; assay: TNAP enzyme activators, dose response, selectivity assay for human IAP activator project, biochemical, TNAP isozyme, human IAP uHTS hits (AID 488886); assay type: functional;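 further: potency of compounds raising TNAP activity as a selectivity check on IAP activators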
[4] = biological target: Intestinal-type alkaline phosphatase (Mus musculus, UniProt P24822); assay: PubChem AID 488874; assay type: functional
Sequence of Intestinal-type alkaline phosphatase (Mus musculus, UniProt P24822) (P24822 whole entry): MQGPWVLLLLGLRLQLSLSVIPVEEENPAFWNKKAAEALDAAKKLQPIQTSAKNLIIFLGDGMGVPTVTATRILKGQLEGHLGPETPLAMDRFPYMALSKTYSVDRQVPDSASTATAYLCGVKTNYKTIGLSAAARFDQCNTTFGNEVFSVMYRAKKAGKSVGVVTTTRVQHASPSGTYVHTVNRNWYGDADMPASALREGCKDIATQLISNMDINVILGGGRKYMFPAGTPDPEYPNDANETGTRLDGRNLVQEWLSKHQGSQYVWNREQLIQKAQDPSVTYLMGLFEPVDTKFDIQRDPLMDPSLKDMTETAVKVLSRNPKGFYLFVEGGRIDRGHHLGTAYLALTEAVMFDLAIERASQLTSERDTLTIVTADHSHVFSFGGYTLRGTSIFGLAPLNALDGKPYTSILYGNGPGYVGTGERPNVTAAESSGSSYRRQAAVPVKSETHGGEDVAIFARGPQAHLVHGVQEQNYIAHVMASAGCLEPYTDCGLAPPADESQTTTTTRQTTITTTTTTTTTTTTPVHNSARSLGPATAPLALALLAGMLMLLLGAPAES

[5] = biological target: T1, Intestinal-type alkaline phosphatase; assay: human intestinal alkaline phosphatase activators, dose response, biochemical, luminescence, uHTS hits (AID 463120); assay type: functional
[6] = insulin promoter down-regulators in MIN6 cells, imaging, high-content screening, mouse beta cells (AID 1628); assay type: functional
[7] = cytotoxicity in MIN6 insulinoma cells, dose response, cytotoxicity control, cell-based, mouse insulinoma (AID 2122); assay type: functional;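 further: confirmatory high-throughput counterscreen run to flag cytotoxic compounds; mouse MIN-6 beta cells carrying an insulin promoter eGFP reporter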
CAAX prenyl protease 1 = CAAX prenyl protease 1 (Saccharomyces cerevisiae S288c, UniProt P47154); assay: Ste24 protease inhibitors, dose response, biochemical, S. cerevisiae, plate reader, cherry-pick (AID 488815)
Sequence of CAAX prenyl protease 1 (P47154 whole entry): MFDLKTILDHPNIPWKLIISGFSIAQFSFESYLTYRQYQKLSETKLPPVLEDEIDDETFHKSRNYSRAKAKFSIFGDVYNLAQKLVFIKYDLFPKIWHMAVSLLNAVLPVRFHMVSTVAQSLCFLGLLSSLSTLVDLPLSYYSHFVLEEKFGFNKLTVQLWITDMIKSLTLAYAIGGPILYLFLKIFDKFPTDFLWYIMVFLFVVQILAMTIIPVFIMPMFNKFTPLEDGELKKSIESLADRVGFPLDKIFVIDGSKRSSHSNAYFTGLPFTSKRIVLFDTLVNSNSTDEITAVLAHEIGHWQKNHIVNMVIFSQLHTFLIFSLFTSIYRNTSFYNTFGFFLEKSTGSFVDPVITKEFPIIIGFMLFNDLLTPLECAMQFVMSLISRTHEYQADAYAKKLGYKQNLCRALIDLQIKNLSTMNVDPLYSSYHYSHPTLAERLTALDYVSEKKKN

Trypsin = Trypsin (Sus scrofa, UniProt P00761); assay: porcine trypsin inhibitors, dose response, selectivity assay for Rce1 protease inhibitor project, biochemical, quenched peptide fluorescence, cherry-pick (AID 488789)
Sequence of Trypsin (P00761 whole entry): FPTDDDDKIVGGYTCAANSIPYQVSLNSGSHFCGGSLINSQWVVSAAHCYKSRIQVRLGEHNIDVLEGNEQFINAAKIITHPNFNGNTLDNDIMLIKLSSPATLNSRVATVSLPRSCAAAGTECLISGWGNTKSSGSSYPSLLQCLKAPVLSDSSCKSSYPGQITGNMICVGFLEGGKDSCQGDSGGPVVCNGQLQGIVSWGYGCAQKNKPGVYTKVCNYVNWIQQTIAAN

cells = assay type: functional
[8] = HepG2 cell cytotoxicity, dose response, cytotoxicity control for non-replicating M. tuberculosis project (AID 489018); assay type: functional; details: Mycobacterium tuberculosis
CAAX prenyl protease 2 = biological target: T3, CAAX prenyl protease 2 (Homo sapiens, UniProt Q9Y256); assay: human Rce1 protease inhibitors, dose response, biochemical, yeast membranes, quenched-peptide fluorescence, cherry-pick (AID 588849)
T3 sequence (Q9Y256 whole entry): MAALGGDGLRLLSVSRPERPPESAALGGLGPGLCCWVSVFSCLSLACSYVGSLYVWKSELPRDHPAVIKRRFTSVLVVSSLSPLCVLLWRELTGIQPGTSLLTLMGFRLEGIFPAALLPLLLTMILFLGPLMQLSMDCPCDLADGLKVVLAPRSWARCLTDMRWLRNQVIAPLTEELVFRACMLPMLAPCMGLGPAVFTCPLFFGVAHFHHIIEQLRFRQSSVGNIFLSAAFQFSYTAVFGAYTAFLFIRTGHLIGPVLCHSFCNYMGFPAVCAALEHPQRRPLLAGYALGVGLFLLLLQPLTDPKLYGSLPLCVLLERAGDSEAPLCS

[9] = Vero E6 cell cytotoxicity, dose response, cytotoxicity control for non-replicating M. tuberculosis project, secondary assay (AID 492998); assay type: functional, VeroE6; details: Vero C1008
HEK293 [10] = assay: cells; details: Homo sapiens
Tumor necrosis factor = Tumor necrosis factor (Homo sapiens, UniProt P01375); assay: TNFa-triggered NF-kB activation inhibitors, SAR follow-up, cell-based, revised (AID 2337); assay type: functional
Sequence of Tumor necrosis factor (P01375 whole entry): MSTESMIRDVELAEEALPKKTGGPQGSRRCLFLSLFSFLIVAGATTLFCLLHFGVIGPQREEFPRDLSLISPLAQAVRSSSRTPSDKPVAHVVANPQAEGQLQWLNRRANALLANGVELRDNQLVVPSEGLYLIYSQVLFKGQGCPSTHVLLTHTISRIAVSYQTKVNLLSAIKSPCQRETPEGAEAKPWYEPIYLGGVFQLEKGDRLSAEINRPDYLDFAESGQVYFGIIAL

HEK293 [11] = assay: NOD2 signaling inhibitors in MDP-stimulated cells, cell-based, uHTS, luminescence (AID 2001); assay type: functional; details: Homo sapiens
[12] = biological target: Nucleotide-binding oligomerization domain-containing protein 1 (Homo sapiens, UniProt Q9Y239); assay: NOD1 signaling inhibitors, SAR follow-up, revised (AID 2333); assay type: functional
Sequence of Nucleotide-binding oligomerization domain-containing protein 1 (Q9Y239 whole entry, the tested form may be a part): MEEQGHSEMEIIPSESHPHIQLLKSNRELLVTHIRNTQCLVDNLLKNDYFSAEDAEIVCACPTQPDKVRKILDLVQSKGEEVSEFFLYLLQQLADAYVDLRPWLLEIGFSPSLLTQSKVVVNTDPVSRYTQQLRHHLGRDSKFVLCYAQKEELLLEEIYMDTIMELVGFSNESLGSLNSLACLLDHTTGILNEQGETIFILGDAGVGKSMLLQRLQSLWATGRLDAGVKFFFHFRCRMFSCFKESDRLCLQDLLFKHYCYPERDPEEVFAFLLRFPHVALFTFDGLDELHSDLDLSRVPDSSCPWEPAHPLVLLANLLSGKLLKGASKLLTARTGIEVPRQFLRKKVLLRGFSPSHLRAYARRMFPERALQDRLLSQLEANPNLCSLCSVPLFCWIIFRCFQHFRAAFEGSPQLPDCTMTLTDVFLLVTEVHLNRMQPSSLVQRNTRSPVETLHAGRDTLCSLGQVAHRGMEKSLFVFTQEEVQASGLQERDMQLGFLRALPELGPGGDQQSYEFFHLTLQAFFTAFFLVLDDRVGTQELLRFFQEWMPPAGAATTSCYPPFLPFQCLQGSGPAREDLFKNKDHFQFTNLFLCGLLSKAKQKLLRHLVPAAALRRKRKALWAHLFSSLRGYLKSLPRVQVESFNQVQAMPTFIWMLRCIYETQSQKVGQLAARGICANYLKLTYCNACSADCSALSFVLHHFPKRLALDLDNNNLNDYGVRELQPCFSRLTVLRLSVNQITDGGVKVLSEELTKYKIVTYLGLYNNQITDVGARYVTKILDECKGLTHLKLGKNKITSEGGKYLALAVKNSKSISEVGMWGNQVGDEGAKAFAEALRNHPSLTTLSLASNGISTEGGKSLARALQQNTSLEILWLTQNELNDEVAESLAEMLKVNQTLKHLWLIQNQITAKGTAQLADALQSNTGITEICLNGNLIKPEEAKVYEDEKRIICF

[13] = biological target: Nucleotide-binding oligomerization domain-containing protein 2 (Homo sapiens, UniProt Q9HC29); assay: NOD2 signaling inhibitors, cell-based, luminescence, uHTS, HEK293 (AID 1566); assay type: functional
Sequence of Nucleotide-binding oligomerization domain-containing protein 2 (Q9HC29 whole entry, the tested form may be a part): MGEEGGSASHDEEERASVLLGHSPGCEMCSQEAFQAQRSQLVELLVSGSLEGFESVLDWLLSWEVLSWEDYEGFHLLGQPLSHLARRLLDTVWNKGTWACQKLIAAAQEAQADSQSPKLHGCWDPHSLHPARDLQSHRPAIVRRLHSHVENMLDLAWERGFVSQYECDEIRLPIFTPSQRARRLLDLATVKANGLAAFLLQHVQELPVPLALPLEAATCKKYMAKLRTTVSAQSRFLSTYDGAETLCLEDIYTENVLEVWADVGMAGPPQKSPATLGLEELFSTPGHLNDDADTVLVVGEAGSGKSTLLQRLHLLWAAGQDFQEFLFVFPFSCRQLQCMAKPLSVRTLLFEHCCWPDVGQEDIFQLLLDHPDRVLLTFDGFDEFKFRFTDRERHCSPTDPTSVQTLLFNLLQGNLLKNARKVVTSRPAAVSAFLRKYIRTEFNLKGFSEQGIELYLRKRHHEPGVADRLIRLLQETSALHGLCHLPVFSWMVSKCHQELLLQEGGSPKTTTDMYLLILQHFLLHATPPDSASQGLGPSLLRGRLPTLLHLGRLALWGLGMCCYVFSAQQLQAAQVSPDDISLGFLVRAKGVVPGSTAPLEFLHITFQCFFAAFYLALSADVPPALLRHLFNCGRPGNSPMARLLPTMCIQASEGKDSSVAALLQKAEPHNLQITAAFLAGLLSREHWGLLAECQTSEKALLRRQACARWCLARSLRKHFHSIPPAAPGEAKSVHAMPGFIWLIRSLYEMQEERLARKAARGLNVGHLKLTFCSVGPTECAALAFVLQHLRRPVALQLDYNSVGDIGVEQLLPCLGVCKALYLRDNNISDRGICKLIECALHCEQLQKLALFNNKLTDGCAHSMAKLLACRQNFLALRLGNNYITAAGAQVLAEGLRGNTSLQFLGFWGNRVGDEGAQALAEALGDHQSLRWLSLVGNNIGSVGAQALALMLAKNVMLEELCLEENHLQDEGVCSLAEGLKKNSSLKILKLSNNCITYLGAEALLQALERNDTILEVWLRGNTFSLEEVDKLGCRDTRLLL

HEK293 [14] = assay: NOD1 signaling inhibitors, primary screen, cell-based, luminescence, uHTS (AID 1578); assay type: functional; details: Homo sapiens
HEK293 [15] = assay: cells; assay type: functional, cell-based; details: Homo sapiens
HEK293 [16] = assay: cells; assay type: functional, cell-based; details: Homo sapiens; remark: listed apart in the source
HEK293 [17] = assay: cells; assay type: functional, cell-based; details: Homo sapiens; remark: listed apart in the source

T1 sequence (P09923 whole entry): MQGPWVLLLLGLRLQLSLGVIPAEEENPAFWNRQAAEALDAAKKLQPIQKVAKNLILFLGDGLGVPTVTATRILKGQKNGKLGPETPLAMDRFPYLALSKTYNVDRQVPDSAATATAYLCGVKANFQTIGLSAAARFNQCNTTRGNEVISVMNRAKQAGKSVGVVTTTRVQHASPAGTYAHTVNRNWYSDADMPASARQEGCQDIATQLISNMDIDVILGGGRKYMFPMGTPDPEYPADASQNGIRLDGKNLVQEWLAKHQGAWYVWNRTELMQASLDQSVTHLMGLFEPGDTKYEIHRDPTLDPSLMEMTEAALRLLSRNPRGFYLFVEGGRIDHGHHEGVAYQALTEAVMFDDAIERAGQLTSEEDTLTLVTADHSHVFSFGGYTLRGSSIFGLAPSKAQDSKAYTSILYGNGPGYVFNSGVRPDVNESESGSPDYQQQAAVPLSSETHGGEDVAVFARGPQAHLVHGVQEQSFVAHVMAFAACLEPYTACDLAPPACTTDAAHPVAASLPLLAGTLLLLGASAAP

CCCOCC(O)CC(CC)C(=O)NNC(=S)Nc1ccccc1 (configuration not stated)
> 100 µM (not active): EC50 [2]
active: EC50 [1] 15.1 µM | EC50 [3] 16.2 µM | IC50 [4] 69.5 µM | EC50 [5] 14.1 µM

Nc1c2c(nc3ccc(Br)cc13)N(C1CCCCC1)CC2
active: IC50 [6] 3.06 µM | IC50 [7] 4.61 µM

Cc1nn2c(NCCN(C)C)c3c(nc2c1-c1ccccc1)CCCC3
active: AC50 (CAAX prenyl protease 1) 4.57 µM | AC50 (Trypsin) 12.7 µM | IC50 (cells) 5.84 µM | CC50 [8] 16.4 µM | AC50 (CAAX prenyl protease 2) 14.3 µM | CC50 [9] > 20 µM

O=C(Nc1nnc(S(=O)(=O)N2CCCCCC2)s1)c1ccc(Br)cc1
active: IC50 [12] 5.53 µM | EC50 [13] 10.4 µM | EC50 (HEK293 [14]) 1.56 µM | IC50 (HEK293 [16]) 14.2 µM
inactive: IC50 (HEK293 [10]) > 20 µM | IC50 (Tumor necrosis factor) > 20 µM | IC50 (HEK293 [11]) 18.1 µM | IC50 (HEK293 [15]) > 20 µM | IC50 (HEK293 [17]) > 20 µM
